Test results as given in patent publication US6290993A, “Compositions containing mimosa phenolic compounds” (E-L Management Corp., priority 1999, dated 2001).

Tested on: Normal human dermal fibroblasts
Test: Collagen-increasing activity, ELISA for collagen type 1 or procollagen type 1
Type: cell-based
Details: 5 ng/ml, positive control, 4 days incubation
Description: Normal human dermal fibroblasts are seeded and grown to confluence in a 96-well plate prior to being treated with M. pudica extract or fractions thereof, prepared by solvent/solvent extractions (heptane/70% ethanol, ethyl acetate/water) at various concentrations in complete medium. Media alone serves as negative control and TGF-β serves as positive control. The plates are incubated for 4 days at 37° C./5% CO2 before the supernatants are harvested and stored at -70° C. until an ELISA is performed. Antibodies to collagen type 1 or procollagen type 1 are used for ELISA analysis to determine collagen levels.

TGF-β
increase in collagen levels: 46%
